Reference: US12559718B2, “Diagnostic methods for t cell therapy” (Kite Pharma, Inc., priority 2015, dated 2026)

Assay: Phase 1/2 trial of anti-CD19 CAR+ T cells: adverse events and dose-limiting toxicity
Assay type: in vivo, human
Details: 1 subject, onset at day 110 post anti-CD19 CAR+ T cell infusion
Method: Subjects who signed informed consent and met study eligibility were enrolled into the study and underwent leukapheresis to obtain PBMCs for the production of anti-CD19 CAR+ T cells. […] Some subjects were then treated with interleukin-2 (Group 1 only), 3 hours after the anti-CD19 CAR+ T cell infusion. Retreatment of a second dose of anti-CD19 CAR+ T cells was allowed if there was a response of partial response (PR) or complete response (CR) after the first infusion and then subsequent disease progression.
Three groups of subjects were enrolled. […] These subjects also received high dose interleukin-2 (IL-2) at 720,000 IU/kg (every 8 hours until 15 doses or toxicity precluded additional doses) after the anti-CD19 CAR+ T cell administration to stimulate their proliferation.
Group 3 includes 11 subjects, who have received a reduced conditioning regimen of cyclophosphamide at 300 mg/m^2 and fludarabine at 30 mg/m^2, both given for 3 concurrent days with no IL-2.
Overall safety summaries include all 32 treated subjects.

Structure (SMILES): Nc1nc(F)nc2c1ncn2[C@@H]1O[C@H](CO)[C@@H](O)[C@@H]1O [fludarabine]
- Neurologic adverse event considered by the investigator related to fludarabine: grade 4 myelitis
